According to patent US11000033B2, “Ketone or oxime compound, and herbicide” (NISSAN CHEMICAL CORPORATION, priority 2014, dated 2021):

How the values were obtained:
Type in all cases: in vivo
[1] = tested on: transplanted rice plant; experiment: Test Example 1: effect on crop, application before weed generation in submerged conditions (symbol a)
In short: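 Alluvial soil pots flooded to 4 cm water, sown with Echinochloa oryzacola, Scirpus juncoides and Monochoria vaginalis, then transplanted with 2.5 leaf stage rice seedlings; pre-emergence application. Greenhouse 25° C. to 30° C.; scored 0–5 by herbicidal ratio 3 weeks after application.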

[2] = tested on: Echinochloa crus-galli var. crus-galli; experiment: Test Example 3: herbicidal effect by foliage application, Wagner pot (symbol H); conditions: for H (Echinochloa crus-galli var. crus-galli) herbicidal effect grade: Table 24
In short: (§1)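 Foliar spray of water-diluted emulsion formulation at a predetermined herbicide amount onto 14-day-old plants in flooded alluvial soil (water depth 0.1–0.5 cm), greenhouse 25–30 °C; rice sown alongside. Scored 3 wk post-application on set criteria.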

[3] = tested on: Leptochloa chinensis; experiment: Test Example 3: herbicidal effect by foliage application, Wagner pot (symbol D); conditions: for D (Leptochloa chinensis) herbicidal effect grade: Table 24
In short: as §1

[4] = tested on: Cyperus difformis; experiment: Test Example 3: herbicidal effect by foliage application, Wagner pot (symbol E); conditions: for E herbicidal effect grade: Table 24
In short: as §1

[5] = tested on: Alopecurus myosuroides; experiment: Test Example 4: herbicidal effect by soil treatment (symbol J)
In short: (§2)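 Seeds were sown in sterilized diluvial soil, covered with about 1.5 cm of soil, and the soil surface was sprayed with a water-diluted emulsion of the compound at a predetermined rate. Plants grew in a greenhouse at 25° C. to 30° C.; effects were scored visually 3 weeks after application.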

[6] = tested on: Apera spica-venti; experiment: Test Example 4: herbicidal effect by soil treatment (symbol L)
In short: as §2

[7] = tested on: Amaranthus retroflexus; experiment: Test Example 4: herbicidal effect by soil treatment (symbol N)
In short: as §2

[8] = tested on: Stellaria media; experiment: Test Example 4: herbicidal effect by soil treatment (symbol P)
In short: as §2

[9] = tested on: Veronica persica; experiment: Test Example 4: herbicidal effect by soil treatment (symbol R)
In short: as §2

[10] = tested on: soybean; experiment: Test Example 4: effect on crop by soil treatment (symbol d)
In short: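 Grown at 25° C. to 30° C. in a greenhouse, the crops came from seed sown spot-wise in sterilized diluvial soil under roughly 1.5 cm of covering soil.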

[11] = tested on: Setaria viridis; experiment: Test Example 5: herbicidal effect by foliage application, plastic box (symbol G); conditions: 3 weeks after application
In short: (§3)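 Effect is rated 3 weeks after a foliar spray of water-diluted emulsion concentrate at a predetermined herbicide amount. Plants had grown 14 days in a 25° C. to 30° C. greenhouse from seed in sterilized diluvial soil.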

[12] = tested on: Echinochloa crus-galli var. crus-galli; experiment: Test Example 5: herbicidal effect by foliage application, plastic box (symbol H); conditions: 3 weeks after application
In short: as §3

[13] = tested on: Apera spica-venti; experiment: Test Example 5: herbicidal effect by foliage application, plastic box (symbol L); conditions: 3 weeks after application
In short: as §3

[14] = tested on: Abutilon theophrasti; experiment: Test Example 5: herbicidal effect by foliage application, plastic box (symbol M); conditions: 3 weeks after application
In short: as §3

[15] = tested on: soybean; experiment: Test Example 5: effect on crop by foliage application, plastic box (symbol d); conditions: 3 weeks after application
In short: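 Sterilized diluvial soil, plastic box (21 × 13 × 7 cm); spot sowing, ~1.5 cm soil cover; greenhouse 25–30° C.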

[16] = application herbicide amount 320 g/ha
[17] = application herbicide amount 192 g/ha

| SMILES | a (transplanted rice plant) effect on crop grade [1, 16] | H (Echinochloa crus-galli var. crus-galli) herbicidal effect grade [2, 16] | D (Leptochloa chinensis) herbicidal effect grade [3, 16] | E herbicidal effect grade [4, 16] | Herbicidal effect grade, J: Alopecurus myosuroides [5, 16] | Herbicidal effect grade, L: Apera spica-venti [6, 16] | Herbicidal effect grade, N: Amaranthus retroflexus [7, 16] | Herbicidal effect grade, P: Stellaria media [8, 16] | Herbicidal effect grade, R: Veronica persica [9, 16] | Effect on crop grade, d: soybean [10, 16] | G: Setaria viridis, herbicidal effect grade ([11]; 320 g/ha) | H: Echinochloa crus-galli var. crus-galli, herbicidal effect grade ([12]; 320 g/ha) | L: Apera spica-venti, herbicidal effect grade ([13]; 320 g/ha) | M: Abutilon theophrasti, herbicidal effect grade ([14]; 320 g/ha) | d: soybean, effect on crop grade ([15]; 320 g/ha) | other results |
| --- | --- | --- | --- | --- | --- | --- | --- | --- | --- | --- | --- | --- | --- | --- | --- | --- |
| COCCON=C(CC1CC(O)=C(c2c(C)cc(-n3cc(Cl)cn3)cc2C)C1=O)C(C)C (stereo not drawn) [9-022] | 5 (Herbicidal ratio of 90% or more (almost completely withered)) | 5 (Herbicidal ratio of 90% or more (almost completely withered)) | 5 (Herbicidal ratio of 90% or more (almost completely withered)) | 5 (Herbicidal ratio of 90% or more (almost completely withered)) | 0 (Herbicidal ratio of 5% or lower (almost no effect)) | 0 (Herbicidal ratio of 5% or lower (almost no effect)) | 0 (Herbicidal ratio of 5% or lower (almost no effect)) | 0 (Herbicidal ratio of 5% or lower (almost no effect)) | 0 (Herbicidal ratio of 5% or lower (almost no effect)) | 0 (Herbicidal ratio of 5% or lower (almost no effect)) | 5 (Herbicidal ratio of 90% or more (almost completely withered)) | 5 (Herbicidal ratio of 90% or more (almost completely withered)) | 2 (Herbicidal ratio of 20% or higher and lower than 40%) | 0 (Herbicidal ratio of 5% or lower (almost no effect)) | 0 (Herbicidal ratio of 5% or lower (almost no effect)) |  |
| CCC(=O)CC1CC(O)=C(c2c(C)cc(Br)cc2OC)C1=O (racemic) [14-002] | 2 (Herbicidal ratio of 20% or higher and lower than 40%) | 5 (Herbicidal ratio of 90% or more (almost completely withered)) | 5 (Herbicidal ratio of 90% or more (almost completely withered)) | 5 (Herbicidal ratio of 90% or more (almost completely withered)) |  |  |  |  |  |  | 5 (Herbicidal ratio of 90% or more (almost completely withered)) | 5 (Herbicidal ratio of 90% or more (almost completely withered)) | 5 (Herbicidal ratio of 90% or more (almost completely withered)) | 4 (Herbicidal ratio of 70% or higher and lower than 90%) | 1 (Herbicidal ratio of 5% or higher and lower than 20%) | J: Alopecurus myosuroides, herbicidal effect grade [5, 16]: 4 (Herbicidal ratio of 70% or higher and lower than 90%); L: Apera spica-venti, herbicidal effect grade [6, 16]: 5 (Herbicidal ratio of 90% or more (almost completely withered)); N: Amaranthus retroflexus, herbicidal effect grade [7, 16]: 0 (Herbicidal ratio of 5% or lower (almost no effect)); P: Stellaria media, herbicidal effect grade [8, 16]: 0 (Herbicidal ratio of 5% or lower (almost no effect)); R: Veronica persica, herbicidal effect grade [9, 16]: 0 (Herbicidal ratio of 5% or lower (almost no effect)); d: soybean, effect on crop grade [10, 16]: 0 (Herbicidal ratio of 5% or lower (almost no effect)) |
| CC(CC1CC(OC(=O)COc2ccccc2)=C(c2c(C)cc(-c3ccc(Cl)cc3)cc2C)C1=O)=NOCC(F)(F)F (mixture of isomers) [9-027] | 5 (Herbicidal ratio of 90% or more (almost completely withered)) | 5 (Herbicidal ratio of 90% or more (almost completely withered)) | 5 (Herbicidal ratio of 90% or more (almost completely withered)) | 5 (Herbicidal ratio of 90% or more (almost completely withered)) | 5 (Herbicidal ratio of 90% or more (almost completely withered)) | 5 (Herbicidal ratio of 90% or more (almost completely withered)) | 3 (Herbicidal ratio of 40% or higher and lower than 70%) | 3 (Herbicidal ratio of 40% or higher and lower than 70%) | 3 (Herbicidal ratio of 40% or higher and lower than 70%) | 0 (Herbicidal ratio of 5% or lower (almost no effect)) | 5 (Herbicidal ratio of 90% or more (almost completely withered)) | 5 (Herbicidal ratio of 90% or more (almost completely withered)) | 5 (Herbicidal ratio of 90% or more (almost completely withered)) | 0 (Herbicidal ratio of 5% or lower (almost no effect)) | 0 (Herbicidal ratio of 5% or lower (almost no effect)) |  |
| CON=C(C)CC1CC(OC(=O)c2nsc(Cl)c2Cl)=C(c2c(C)cc(C)cc2C)C1=O (stereo not drawn) [1-099] |  |  |  |  |  |  |  |  |  |  |  |  |  |  |  | Effect grade on crop, a: transplanted rice plant [1, 16]: 5 (Herbicidal ratio of 90% or more (almost completely withered)); herbicidal effect on H (Echinochloa crus-galli var. crus-galli), grade 0-5 [2, 16]: 5 (Herbicidal ratio of 90% or more (almost completely withered)); herbicidal effect on D (Leptochloa chinensis), grade 0-5 [3, 16]: 5 (Herbicidal ratio of 90% or more (almost completely withered)); herbicidal effect on E, grade 0-5 [4, 16]: 5 (Herbicidal ratio of 90% or more (almost completely withered)); J: Alopecurus myosuroides, herbicidal effect grade ([5]; 320 g/ha): 5 (Herbicidal ratio of 90% or more (almost completely withered)); L: Apera spica-venti, herbicidal effect grade ([6]; 320 g/ha): 5 (Herbicidal ratio of 90% or more (almost completely withered)); N: Amaranthus retroflexus, herbicidal effect grade ([7]; 320 g/ha): 3 (Herbicidal ratio of 40% or higher and lower than 70%); P: Stellaria media, herbicidal effect grade ([8]; 320 g/ha): 0 (Herbicidal ratio of 5% or lower (almost no effect)); R: Veronica persica, herbicidal effect grade ([9]; 320 g/ha): 0 (Herbicidal ratio of 5% or lower (almost no effect)); d: soybean, effect grade on crop ([10]; 320 g/ha): 3 (Herbicidal ratio of 40% or higher and lower than 70%); G: Setaria viridis, herbicidal effect (criteria 0-5) ([11]; 320 g/ha): 5 (Herbicidal ratio of 90% or more (almost completely withered)); H: Echinochloa crus-galli var. crus-galli, herbicidal effect (criteria 0-5) ([12]; 320 g/ha): 5 (Herbicidal ratio of 90% or more (almost completely withered)); L: Apera spica-venti, herbicidal effect (criteria 0-5) ([13]; 320 g/ha): 5 (Herbicidal ratio of 90% or more (almost completely withered)); M: Abutilon theophrasti, herbicidal effect (criteria 0-5) ([14]; 320 g/ha): 4 (Herbicidal ratio of 70% or higher and lower than 90%); d: soybean, effect on crop (criteria 0-5) ([15]; 320 g/ha): 4 (Herbicidal ratio of 70% or higher and lower than 90%) |
| CON=C(C)CC1CC(OC(=O)C2CCCO2)=C(c2c(C)cc(C)cc2C)C1=O (stereo not drawn) [1-076] |  |  |  |  |  |  |  |  |  |  |  |  |  |  |  | Effect grade on crop, a: transplanted rice plant [1, 17]: 5 (Herbicidal ratio of 90% or more (almost completely withered)); herbicidal effect on H (Echinochloa crus-galli var. crus-galli), grade 0-5 [2, 17]: 5 (Herbicidal ratio of 90% or more (almost completely withered)); herbicidal effect on D (Leptochloa chinensis), grade 0-5 [3, 17]: 5 (Herbicidal ratio of 90% or more (almost completely withered)); herbicidal effect on E, grade 0-5 [4, 17]: 5 (Herbicidal ratio of 90% or more (almost completely withered)); J: Alopecurus myosuroides, herbicidal effect grade ([5]; 192 g/ha): 4 (Herbicidal ratio of 70% or higher and lower than 90%); L: Apera spica-venti, herbicidal effect grade ([6]; 192 g/ha): 5 (Herbicidal ratio of 90% or more (almost completely withered)); N: Amaranthus retroflexus, herbicidal effect grade ([7]; 192 g/ha): 4 (Herbicidal ratio of 70% or higher and lower than 90%); P: Stellaria media, herbicidal effect grade ([8]; 192 g/ha): 0 (Herbicidal ratio of 5% or lower (almost no effect)); R: Veronica persica, herbicidal effect grade ([9]; 192 g/ha): 0 (Herbicidal ratio of 5% or lower (almost no effect)); d: soybean, effect grade on crop ([10]; 192 g/ha): 0 (Herbicidal ratio of 5% or lower (almost no effect)); G: Setaria viridis, herbicidal effect (criteria 0-5) ([11]; 192 g/ha): 5 (Herbicidal ratio of 90% or more (almost completely withered)); H: Echinochloa crus-galli var. crus-galli, herbicidal effect (criteria 0-5) ([12]; 192 g/ha): 5 (Herbicidal ratio of 90% or more (almost completely withered)); L: Apera spica-venti, herbicidal effect (criteria 0-5) ([13]; 192 g/ha): 5 (Herbicidal ratio of 90% or more (almost completely withered)); M: Abutilon theophrasti, herbicidal effect (criteria 0-5) ([14]; 192 g/ha): 4 (Herbicidal ratio of 70% or higher and lower than 90%); d: soybean, effect on crop (criteria 0-5) ([15]; 192 g/ha): 4 (Herbicidal ratio of 70% or higher and lower than 90%) |
